According to patent publication US12582672B2, “Vanadium compositions and methods for treatment of cancer” (THE BROAD INSTITUTE, INC., priority 2018, dated 2026):
“Also recorded” adds a separate entry of the source.

Columns and labels:
[1] = tested on: 578 cancer cell lines; test: PRISM multiplexed cellular viability assay; format: cell-based; settings: for prediction of cell line sensitivity by SLC26A2 expression: more than 4,000 compounds profiled against 578 cancer cell lines
Procedure: Parental cell lines were obtained from the Cancer Cell Line Encyclopedia (CCLE) project (1). PRISM cell line barcoding, pooling, and screening was performed as previously described with several improvements to the original method (2). First, the lentiviral vector was modified to encode the unique barcode identifier at the end of the puromycin resistance gene. This enables barcodes to be detected using a variant of the mRNA capture and Luminex detection method developed for the L1000 gene expression assay (3). Second, a set of ten inert barcodes were spiked-in to each well of each plate after cell lysis to control for variation in PCR amplification as detailed below.
Luminex technology produced .Ixb files containing data for each Luminex bead observed during detection. These .Ixb files were processed to compute Median Fluorescence Intensity (MFI) values, calculated as the median of the values obtained for all beads corresponding to a single PRISM barcode.
MFI values were log-transformed (logMFI) and used to perform basic quality control. To detect probable screening artifacts, logMFI values were centered to the median logMFI for each cell line on each plate in order to put the measurements from each cell line on the same scale. For each well on each plate, the median of these centered values was then standardized according to the global median and global MAD across all plate wells in the same position. Data from wells with a standardized score of greater than 5 or less than −5 were excluded from all further processing steps.
For each cell line on each plate, the distribution of MFI values observed for the DMSO-treated negative controls was compared to that of the positive controls using a robust form of the Strictly Standardized Mean Difference (SSMD*)′. Specifically, SSMD* was calculated as: […]
Data corresponding to SSMD values less than 2 were removed before calculating cell viability.
The data in the instant disclosure were produced according to two different screening protocols. In the PR500 protocol, ten inert barcodes were spiked-in to each well of each plate after cell lysis. For data produced using the PR500 protocol, normalized MFI (nMFI) values were computed by taking the ratio of each MFI value against the median of the inert barcodes within each well. For data produced before the PR500 protocol was introduced, nMFI values were set equal to MFI values.
Cell viability was calculated as the ratio of nMFI to the median of the nMFI from the DMSO-treated negative controls for each cell line on each plate. Batch effects produced from variable detection and assay conditions were then removed using ComBat (4). The final viability values were calculated as the median of the batch-corrected cell viabilities from biological replicates for each cell line, compound and dose.
Measures of dose response were obtained by fitting 3-parameter logistic curves to viability values for each compound and cell line using the R package ‘drc’. Following the practice of Smirnov and Safikhani (5), viability was truncated at 1.0 and fit as a function of drug concentration according to:
[formula] where all concentrations are in the natural logarithm scale. IC50 values were defined as the concentration c at which V(c)=0.5, given by the formula:
[formula] The Area Under the dose response Curve (AUC) was calculated using the normalized integral: […]
The formulation above puts AUC values on a scale between 0 and 1, where lower AUC values indicate increased sensitivity to the treatment.

[2] = tested on: SLC26A2 knockouts in A375, OVISE, and A2058 cell lines; test: CellTiter-Glo cellular viability assay in CRISPR-Cas9 SLC26A2 knockout cell lines; format: cell-based; settings: FIGS. 7A-7C
From the text: XP003, XP023, psPAX, and pMD2.G vectors were acquired from the Broad Genetic Perturbation Platform (GPP). Oligos for sgRNAs designs were generated using Broad GPP sgRNA guide generator resource (on the World Wide Web at (www)broad institute.org/gpp/db/analvsis-tools/sgrna-design) and the respective oligos were synthesized by Integrated DNA Technologies. In order to clone the sgRNAs into either the XPR003 guide only or XPRO23 all-in-one crispr lentiviral expression systems the protocol available on the Broad GPP website (www.broadinstitute.org/gpp/db/resources/protocols) was followed.
In order to generate viral vectors, HEK293T cells were seeded in 6 well plates at a density of 1.5E6 cells per well. Cells were then transfected with a mixture of TranslT@-LT1 Transfection Reagent (MirusBio #M1R2304), psPAX2, pMD2.G, lentiviral plasmid diluted in Opti-MEM™ (Thermo #31985062). The following day media was changed DMEM (Thermo #10566016) with 30% FBS (Sigma 18A079). 72 hrs after transfection, virus containing media was collected and run through a 0.2 uM filter to remove cellular debris. Virus was aliquoted and stored short term at −20 C until infection day. […]
Cell viability was assayed using a modified manufacturer's protocol for CellTiter-Glo® (Promega #G7573). […] Luminescence was measured with an integration time of 0.1 s using Envision Microplates Reader (PERKIN ELMER #2105-0010). […]

[3] = diabetic rats; cited from earlier work
[4] = biological target: T1, protein tyrosine phosphatase-1B (PTP-1B) (Homo sapiens, UniProt P18031); settings: cited from earlier work
T1 sequence (P18031 1-435): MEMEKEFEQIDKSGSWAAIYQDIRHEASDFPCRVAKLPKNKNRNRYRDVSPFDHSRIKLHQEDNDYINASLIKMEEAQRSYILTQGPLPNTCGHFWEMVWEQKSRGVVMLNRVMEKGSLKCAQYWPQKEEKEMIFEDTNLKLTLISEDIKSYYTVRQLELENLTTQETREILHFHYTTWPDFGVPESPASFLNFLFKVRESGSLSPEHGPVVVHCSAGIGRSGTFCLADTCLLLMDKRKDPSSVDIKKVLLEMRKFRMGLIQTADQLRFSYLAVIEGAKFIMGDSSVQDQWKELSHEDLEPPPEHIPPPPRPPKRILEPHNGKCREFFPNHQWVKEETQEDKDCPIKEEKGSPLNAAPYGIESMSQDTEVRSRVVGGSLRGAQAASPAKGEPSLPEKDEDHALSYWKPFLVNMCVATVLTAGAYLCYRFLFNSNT

SMILES	selective killing of cancer cell lines ([1]; SLC26A2-high versus lower SLC26A2 expression cell lines)	prediction of cell line sensitivity by SLC26A2 expression [1]	effect of SLC26A2 knockout on BMOV sensitivity (percent viability curves) [2]	glycaemia and insulin levels [3]	phosphatase inhibition [4]
Cc1occc(=O)c1[O][V](=[O])[O]c1c(C)occc1=O [BMOV, bis(maltolato)oxovanadium(IV)]	selective killing of SLC26A2-high cancer cell lines; also recorded: selectively kills ovarian cancer cells, bone cancer cells, and melanoma cells	high SLC26A2 transcriptional target gene expression predicted cell line sensitivity	SLC26A2 knockouts rescue BMOV sensitivity	restore normoglycaemia without rising insulin levels	potent phosphatase inhibitor
CCCCc1occc(=O)c1[O][V](=[O])[O]c1c(CCCC)occc1=O [BnBOV, bis(n-butylmaltolato)oxovanadium(IV)]	–	high SLC26A2 transcriptional target gene expression predicted cell line sensitivity	–	–	–
CCc1occc(=O)c1[O][V](=[O])[O]c1c(CC)occc1=O [BEOV, bis(ethylmaltolato)oxovanadium(IV)]	–	high SLC26A2 transcriptional target gene expression predicted cell line sensitivity	–	–	–
CC(C)c1occc(=O)c1[O][V](=[O])[O]c1c(C(C)C)occc1=O [BIOV, bis(isopropylmaltolato)oxovanadium(IV)]	–	high SLC26A2 transcriptional target gene expression predicted cell line sensitivity	–	–	–
